Experimental data taken from article PMC4982760, “Small-molecule inhibitors identify the RAD52-ssDNA interaction as critical for recovery from replication stress and for survival of BRCA2 deficient cells” (eLife, 2016).
Structures can show the parent of a compound that is named as a salt. Where two headings read alike, the source gives them in different places.

Tests used:
[1] = biological target: T1, RAD52-mediated ssDNA annealing (Homo sapiens, UniProt P43351); assay: FRET-based RAD52-mediated ssDNA annealing assay; format: biochemical
T1 construct: made in house
T1 sequence (P43351 1-418): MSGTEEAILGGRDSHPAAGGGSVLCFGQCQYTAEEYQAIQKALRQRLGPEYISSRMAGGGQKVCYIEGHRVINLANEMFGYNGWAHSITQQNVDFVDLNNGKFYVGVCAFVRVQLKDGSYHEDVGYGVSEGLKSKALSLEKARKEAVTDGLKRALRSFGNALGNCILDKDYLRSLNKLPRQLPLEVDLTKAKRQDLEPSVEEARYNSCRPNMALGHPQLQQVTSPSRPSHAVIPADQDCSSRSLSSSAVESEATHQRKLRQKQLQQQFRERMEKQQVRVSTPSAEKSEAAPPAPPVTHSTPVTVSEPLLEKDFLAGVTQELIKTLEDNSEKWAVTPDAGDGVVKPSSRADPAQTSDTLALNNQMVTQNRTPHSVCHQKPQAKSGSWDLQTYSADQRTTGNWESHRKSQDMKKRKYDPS
From the text: To determine how the selected compounds affect the ssDNA annealing function of RAD52 we performed FRET-based annealing assays ([Grimme et al., 2010]; [Grimme and Spies, 2011]). These assays utilize two complementary single stranded 28-nucleotide-long substrates, which contain either Cy3 (T-28) or Cy5 (P-28) incorporated into the middle of the respective DNA strand. When the substrates are annealed by RAD52, the Cy3 and Cy5 dyes are separated by 3 base pairs and yield a high FRET signal (Figure 2—figure supplement 2). […] The annealing reactions were initiated by mixing two half reactions and observing the change in FRET over time in the presence of varying concentrations of small molecules. An increasing FRET value over time indicates the formation of the dsDNA duplex which brings the two dyes in close proximity (Figure 2—figure supplement 2). Fitting the annealing data to a double exponential allowed us to calculate and compare the final extent of annealing at varying concentrations of each compound compared to RAD52 alone. We plotted the final extent of annealing vs the concentration of the compound and calculated an IC50 of annealing inhibition. […] At the stoichiometric RAD52: dsDNA ratio, (1 nM dsDNA: 10 nM RAD52) the dsDNA is bent upon RAD52 binding, which allows us to distinguish the RAD52-bound and free dsDNA (Figure 2—figure supplement 1).
Annealing of complementary oligonucleotides by RAD52 was monitored under identical conditions as the binding assays described above. For each assay, the reaction master mixture containing 8 nM RAD52 protein in the presence and absence of the compounds at varying concentrations was prepared at room temperature and divided into two half reactions. Following baseline buffer and protein measurements, 0.5 nM of T-28 ssDNA substrate was added to the reaction cuvette and the signal was allowed to stabilize. The annealing reaction was initiated upon addition of the second half-reaction pre-incubated with 0.5 nM P-28 ssDNA substrate. The fluorescence of Cy3 and Cy5 were measured simultaneously over the reaction time course (500 s). FRETapp values were calculated as an average of three or more independent annealing reactions plotted against time (s). The average FRET values were fitted to a double exponential to calculate the final extent of annealing using Graphpad Prism4 software. The calculated annealing extent was plotted as a function of compound concentration and fitted to the same model as we used to determine IC50 values for the inhibition of DNA annealing.

RAD52-ssDNA interaction = biological target: T2, RAD52-ssDNA interaction (Homo sapiens, UniProt P43351); assay: FRET-based ssDNA binding and wrapping assay (RAD52-Cy3-dT30-Cy5 complex); conditions: for IC50 range for inhibition of ssDNA binding, in words / FRET value at saturation: 1 nM Cy3-dT30-Cy5, 8 nM RAD52; for FRET value at saturation: ssDNA
T2 construct: made in house
T2 sequence (P43351 1-418): T1 sequence (P43351 1-418)
Method: We titrated increasing amounts of each compound into a cuvette containing preformed stoichiometric RAD52-Cy3-dT30-Cy5 complexes (1 nM Cy3-dT30-Cy5 and 8 nM RAD52). […] At each concentration of the compound, the FRET signal was adjusted for the change in Cy3 and Cy5 fluorescence in the presence of the compound, but in the absence of protein.
FRET-based ssDNA binding, dsDNA binding, and annealing assays were carried out as previously described ([Grimme et al., 2010]; [Grimme and Spies, 2011]) using Cary Eclipse spectrofluorimeter (Varian) at 25°C in buffer containing 30 mM Tris-Acetate pH7.5, 1 mM DTT, and 0.1 mg/mL BSA. Cy3 dye was excited at 530 nm and its emission was monitored at 565 nm. Emission of Cy5 acceptor fluorophore excited through the energy transfer from Cy3 donor is monitored at 660 nm simultaneously with emission of Cy3 dye. Both the excitation and the emission slit widths were set to 10 nm.
All experiments were performed in triplicates, and the data are shown as averages and standard deviations for three independent measurements. To remove possible experimental artifacts associated with chromogenic or fluorogenic compounds, as well as with the compounds that may quench or enhance Cy3 or Cy5 fluorescence, we also performed control titrations whereby we titrated each compound into 1 nM Cy3-dT30-Cy5 in the absence of RAD52. For each compound concentration we subtracted the difference in the FRET signal in the presence and absence of the compound from the respective FRET signal in the presence of RAD52. The FRET signal corrected for the compound fluorescence was calculated using the equation: FRETapp=4.2∗ICy5/4.2∗ICy5+ 1.7∗ICy3
as previously described ([Grimme et al., 2010]; [Grimme and Spies, 2011]) and plotted as a function of compound concentration and fitted to the following inhibition model” FRET([small molecule])=FRET0−FRETmin/1+10^(LogIC50−Log([small molecule])∗HillSlope),
where FRET0 is the initial FRET value of the RAD52-ssDNA complex in the absence of the compound and FRETmin is the FRET value at complete inhibition. FRET values were calculated as an average of three or more independent annealing reactions plotted against the concentration of the compound. Inhibition of the RAD52-dsDNA interaction was assayed in a similar experiments, except the stoichiometric complexes containing 1 nM molecules of Cy3-Oligo28-Cy5 duplex DNA and 10 nM RAD52.

[2] = 8 nM RAD52, 0.5 nM T-28 and 0.5 nM P-28, read-out: IC50 (Annealing extent), ssDNA
[3] = 1 nM Cy3-dT30-Cy5, 8 nM RAD52, 25°C, read-out: IC50 (DNA binding), ssDNA
[4] = read-out: IC50 (Annealing extent), ssDNA, 8 nM RAD52, 0.5 nM T-28 and 0.5 nM P-28

Row | Compound | IC50 [1, 2] [µM] | IC50 range for inhibition of ssDNA binding, in words (RAD52-ssDNA interaction) | IC50 (RAD52-ssDNA interaction; [3]) [µM] | FRET value at saturation (RAD52-ssDNA interaction) | IC50 [1, 4] [µM] | IC50 (RAD52-ssDNA interaction) [µM] | IC50 [1] [µM]
1 | Oc1cc(O)c2c(c1)O[C@H](c1ccc(O)c(O)c1)[C@H](O)C2 [Compound 7, (−)−Epicatechin] | > 100 | micro-molar range | 1.45 ± 0.11 | 0.51 ± 0.01 | – | – | –
2 | C=C1c2cccc(O)c2C(=O)C2=C(O)[C@]3(O)C(=O)C(C(N)=O)=C(O)[C@@H](N(C)C)[C@@H]3[C@@H](O)[C@H]12 [Compound 3, Methacycline Hydrochloride] | 3.8 ± 0.2 | micro-molar range | 2 ± 0.17 | 0.47 ± 0.01 | – | – | –
3 | CN(C)[C@@H]1C(O)=C(C(=O)NCN2CCCC2)C(=O)[C@@]2(O)C(O)=C3C(=O)c4c(O)cccc4[C@@](C)(O)[C@H]3C[C@@H]12 [Compound 4, Rolitetracycline] | – | mid micro-molar range | – | 0.56 ± 0.04 | > 100 | 29 ± 8.2 | –
4 | O=c1c(O)c(-c2ccc(O)c(O)c2)oc2c(O)c(O)cc(O)c12 [Compound 19, Gossypetin] | – | nano-molar range | – | 0.49 ± 0.01 | – | 0.913 ± 0.058 | 6 ± 2.3
5 | COc1cc(N)c(Cl)cc1C(=O)NC1CCN(CCCOc2ccc(F)cc2)CC1OC (centres unmarked) [Compound 16, Cisapride Monohydrate] | – | – | – | 0.50 ± 0.01 | – | – | –
6 | NCCc1cc(O)c(O)cc1O [Compound 14, Oxidopamine] | – | nano-molar range | – | 0.50 ± 0.01 | > 100 | 0.779 ± 0.051 | –
7 | O=C1c2ccc(O)c(O)c2C(=O)c2c(O)ccc(O)c21 [Compound 15, Quinalizarin] | 5.6 ± 0.6 | nano-molar range | 0.563 ± 0.04 | 0.51 ± 0.01 | – | – | –
8 | CC1(C)C(=O)C=C[C@@]2(C)C1=C(O)C(=O)[C@]1(C)[C@@H]2CC[C@@]2(C)[C@H](c3ccoc3)C[C@H]3O[C@]321 [Compound 17, Cedrelone] | > 100 | high micro-molar range | > 300 | – | – | – | –
9 | C[C@H]1[C@H](C)CC[C@]2(C(=O)O)CC[C@]3(C)C(=CC[C@@H]4[C@@]5(C)C[C@@H](O)[C@H](O)[C@@](C)(CO)[C@@H]5CC[C@]43C)[C@H]12 [Compound 18, Asiatic Acid] | > 100 | high micro-molar range | > 800 | – | – | – | –
10 | O=C(O[C@@H]1Cc2c(O)cc(O)cc2O[C@@H]1c1ccc(O)c(O)c1)c1cc(O)c(O)c(O)c1 [Compound 5, (−)−Epicatechin gallate] | 20 ± 0.7 | nano-molar range | 0.255 ± 0.016 | 0.41 ± 0.004 | – | – | –
